# Where two headings read alike, the source gives them in different places.
# System: P. falciparum K1
# Test: Blood-stage antiplasmodial evaluation (SYBR Green I fluorescence, 72 h)
# Assay type: cell-based, Plasmodium falciparum
# Settings: for EC50: read-out: P. falciparum K1 EC50; for IC50: erythrocytic stage P. falciparum K1, read-out: IC50 (activity on Pf. K1)
# Protocol: A K1 culture-adapted P. falciparum strain resistant to chloroquine, pyrimethamine, and proguanil was used in an in vitro culture. It was maintained in a continuous culture, as described previously by Trager and Jensen. Cultures were maintained in fresh A+ human erythrocytes at 2.5% hematocrit in a complete medium (RPMI 1640 with 25 mM HEPES, 25 mM NaHCO3, and 10% of A+ human serum) at 37 °C under a reduced O2 atmosphere (gas mixture: 10% O2, 5% CO2, and 85% N2). Parasitemia was maintained daily between 1 and 3%. The P. falciparum drug susceptibility test was carried out by comparing quantities of DNA in treated and control cultures of parasite in human erythrocytes, according to a SYBR Green I fluorescence-based method using a 96-well fluorescence plate reader. Compounds, previously dissolved in DMSO (final concentration less than 0.5% v/v), were incubated in a total assay volume of 200 μL (RPMI, 2% hematocrit and 0.4% parasitemia) for 72 h in a humidified atmosphere (10% O2 and 5% CO2) at 37 °C, in 96-well flat bottom plates. Duplicate assays were performed for each sample. After incubation, plates were frozen at […] for 24 h. Then, the frozen plates were thawed for 1 h at 37 °C. A total of 15 μL of each sample was transferred to 96-well flat-bottom non-sterile black plates (Greiner Bio-One, Kremsmünster, Austria) already containing 15 μL of the SYBR Green I lysis buffer (2X SYBR Green I, 20 mM Tris base pH 7.5, 20 mM EDTA, 0.008% w/v saponin, 0.08% w/v Triton X-100). Negative control treated by solvents (DMSO or H2O) and positive controls (chloroquine) were added to each set of experiments. Plates were incubated for 15 min at 37 °C and then read on a TECAN Infinite F-200 spectrophotometer with excitation and emission wavelengths at 485 and 535 nm, respectively. The concentrations of compounds required to induce a 50% decrease in parasite growth (EC50 K1) were calculated from three independent experiments.
# [1] = Plasmodium falciparum, K1, 72 h, asexual blood stages, drug-resistant K1 strain, 72 h incubation, mean ± SD of three independent experiments
# [2] = Plasmodium falciparum, K1, 72 h
# [3] = asexual blood stages, drug-resistant K1 strain, 72 h incubation, mean ± SD of three independent experiments
Molecule,EC50 [1] [µM],other results
"Cc1ccc(-c2cc3nc(NC(C)(C)C)nc(C#CC4CC4)c3s2)cc1 [Compound 12b, N-tert-butyl-4-(cyclopropylethynyl)-6-(4-methylphenyl)thieno[3,2-d]pyrimidin-2-amine]",15.7 ± 2.4,
"Cc1ccc(Oc2nc(NC(C)(C)C)nc3cc(-c4ccc(C)cc4)sc23)cc1 [Compound 8b, N-(tert-butyl)-6-(p-tolyl)-4-(p-tolyloxy)thieno[3,2-d]pyrimidin-2-amine]",> 10,
"Cc1ccc(-c2cc3nc(NC(C)(C)C)nc(C#CCCO)c3s2)cc1 [Compound 12c, 4-[2-tert-butylamino-6-(4-methylphenyl)thieno[3,2-d]pyrimidin-4-yl]but-3-yn-1-ol]",14.2 ± 2.8,
"Cc1ccc(-c2cc3nc(NC(C)(C)C)nc(N[C@@H](C)C(=O)[O-])c3s2)cc1.O.O.O.[Na+] [Compound 10j, Sodium (S)-2-((2-(Tert-butylamino)-6-(p-tolyl)thieno[3,2-d]pyrimidin-4-yl)amino)-propanoate trihydrate]",,EC50 [2]: > 12.5 µM; P. falciparum K1 EC50 [3]: loss of activity
"Cc1ccc(-c2cc3nc(NC(C)(C)C)nc(NC(C)C)c3s2)cc1 [Compound 10e, N^2-(tert-butyl)-N^4-isopropyl-6-(p-tolyl)thieno[3,2-d]pyrimidine-2,4-diamine]",2.4 ± 1,IC50 (Plasmodium falciparum): ~2 µM
"Cc1ccc(-c2cc3nc(NC(C)(C)C)nc(-c4ccccc4)c3s2)cc1 [Compound 11c, N-(tert-butyl)-4-phenyl-6-(p-tolyl)thieno[3,2-d]pyrimidin-2-amine]",> 25,
"Cc1ccc(-c2cc3nc(NC(C)(C)C)nc(NN)c3s2)cc1 [Compound 10i, N-(tert-butyl)-4-hydrazino-6-(p-tolyl)thieno[3,2-d]pyrimidin-2-amine]",2.2 ± 0.3,IC50 (Plasmodium falciparum): ~2 µM
"Cc1ccc(-c2cc3nc(NC(C)(C)C)nc(C#Cc4ccccc4)c3s2)cc1 [Compound 12a, N-tert-butyl-6-(4-methylphenyl)-4-(phenylethynyl)thieno[3,2-d]pyrimidin-2-amine]",20.1 ± 4.1,
"Cc1ccc(-c2cc3nc(NC(C)(C)C)nc(-c4cccnc4)c3s2)cc1 [Compound 11f, N-(tert-butyl)-4-(pyridin-3-yl)-6-(p-tolyl)thieno[3,2-d]pyrimidin-2-amine]",> 10,
"Cc1ccc(-c2cc3nc(NC(C)(C)C)nc(-c4cccc(C)c4)c3s2)cc1 [Compound 11b, N-(tert-butyl)-4-(m-tolyl)-6-(p-tolyl)thieno[3,2-d]pyrimidin-2-amine]",> 31,
"CCN(CC)CCCC(C)Nc1ccnc2cc(Cl)ccc12 (stereo not shown) [Chloroquine, reference compound]",,EC50 [2]: 0.8 ± 0.1 µM
"Cc1ccc(-c2cc3nc(NC(C)(C)C)ncc3s2)cc1 [Compound 13, N-(Tert-butyl)-6-(p-tolyl)thieno[3,2-d]pyrimidin-2-amine]",26.1 ± 2.2,P. falciparum K1 EC50 [3]: inactive
"Cc1ccc(-c2cc3nc(NC(C)(C)C)nc(Nc4ccccc4)c3s2)cc1 [Compound 10h, N^2-(tert-butyl)-N^4-phenyl-6-(p-tolyl)thieno[3,2-d]pyrimidine-2,4-diamine]",2 ± 0.4,P. falciparum K1 EC50 [3]: some activity was maintained
"COc1nc(NC(C)(C)C)nc2cc(-c3ccc(C)cc3)sc12 [Compound 7a, N-(tert-butyl)-4-methoxy-6-(p-tolyl)thieno[3,2-d]pyrimidin-2-amine]",7.6 ± 0.9,
"Cc1ccc(-c2cc3nc(NC(C)(C)C)nc(Oc4ccccc4)c3s2)cc1 [Compound 8a, N-(tert-butyl)-4-phenoxy-6-(p-tolyl)thieno[3,2-d]pyrimidin-2-amine]",> 10,
"Cc1ccc(-c2cc3nc(NC(C)(C)C)nc(Sc4ccccc4)c3s2)cc1 [Compound 9a, N-(tert-butyl)-6-(p-tolyl)-4-(phenylthio)thieno[3,2-d]pyrimidin-2-amine]",13.8 ± 1.7,
"Cc1ccc(-c2cc3nc(NC(C)(C)C)nc(-c4ccc(C)cc4)c3s2)cc1 [Compound 11a, N-(tert-butyl)-4,6-di-p-tolylthieno[3,2-d]pyrimidin-2-amine]",> 31,
"Cc1ccc(Sc2nc(NC(C)(C)C)nc3cc(-c4ccc(C)cc4)sc23)cc1 [Compound 9b, N-(tert-butyl)-6-(p-tolyl)-4-(p-tolylthio)thieno[3,2-d]pyrimidin-2-amine]",16.4 ± 1.9,
"N-(tert-butyl)-4-(1-methylhydrazinyl)-6-(p-tolyl)-3,4-dihydrothieno[3,2-d]pyrimidin-2-amine [Compound 10b]",,EC50 [3]: 2.2 ± 0.3 µM; IC50: ~2 µM
"Cc1ccc(-c2cc3nc(NC(C)(C)C)nc(-c4ccsc4)c3s2)cc1 [Compound 11d, N-(tert-butyl)-4-(thiophen-3-yl)-6-(p-tolyl)thieno[3,2-d]pyrimidin-2-amine]",> 25,
"CCOc1nc(NC(C)(C)C)nc2cc(-c3ccc(C)cc3)sc12 [Compound 7b, N-(tert-butyl)-4-ethoxy-6-(p-tolyl)thieno[3,2-d]pyrimidin-2-amine]",5.1 ± 1.3,
"Cc1ccc(-c2cc3nc(NC(C)(C)C)nc(-c4ccncc4)c3s2)cc1 [Compound 11e, N-(tert-butyl)-4-(pyridin-4-yl)-6-(p-tolyl)thieno[3,2-d]pyrimidin-2-amine]",28.1 ± 7,

# Reference: article PMC9323797, “4-Substituted Thieno[3,2-d]pyrimidines as Dual-Stage Antiplasmodial Derivatives” (Pharmaceuticals, 2022)
